In patent publication US20180028480A1, “METHODS OF REDUCING OR PREVENTING OXIDATIVE MODIFICATION OF MEMBRANE POLYUNSATURATED FATTY ACIDS” (Amarin Pharmaceuticals Ireland Limited, priority 2015, published 2018):

What was measured:
sdLDL = test: Copper-induced sdLDL oxidation (Example 7); format: biochemical, human; conditions: 10.0 μM; copper-induced oxidation 1 hour
Description: An experiment to study the antioxidant effect of EPA in small dense LDL (“sdLDL”) was performed. sdLDL was isolated from human plasma by isopycnic centrifugation, separated into test samples of 200 μg/mL, and incubated at 37° C. for 30 min in the absence (vehicle) or presence of EPA, fenofibrate, niacin, or gemfibrozil, each at 10.0 μM. All samples, with the exception of non-oxidized sdLDL controls, were subjected to copper-induced oxidation for 1 hour. Human umbilical vein endothelial cells (HUVECs) were incubated with the various sdLDL samples, stimulated with calcium, and monitored for nitric oxide (NO) and peroxynitrite (ONOO^−) release using nanosensor technology.

[1] = tested on: Human umbilical vein endothelial cells (HUVECs); test: Nitric oxide release from HUVECs incubated with pretreated oxidized sdLDL (Example 7); format: cell-based; conditions: oxidized sdLDL pretreated at 10.0 μM
Description: All samples, with the exception of non-oxidized sdLDL controls, were subjected to copper-induced oxidation for 1 hour. Human umbilical vein endothelial cells (HUVECs) were incubated with the various sdLDL samples, stimulated with calcium, and monitored for nitric oxide (NO) and peroxynitrite (ONOO^-) release using nanosensor technology.

[2] = X-ray diffraction of glucose-treated DLPC/cholesterol membranes under oxidative conditions (Example 8); conditions: 10.0 μM; 0.6 C/P; glucose-induced lipid peroxidation 72 hours (FIG. 14)
Description: Values are reported as mean±S.D. (N=3).
[…] Membranes were reconstituted from DLPC and cholesterol at a C/P mole ratio of 0.6:1 and treated with the various agents to achieve a total drug-to-phospholipid mole ratio of 1:30.
(§1) Multilamellar vesicles (MLVs) were prepared as binary mixtures of POPC and cholesterol at 50 mol %. MLVs with DLPC and cholesterol at cholesterol-to-phospholipid (C/P) mole ratios of 0.1:1 to 1.1:1 were also prepared in a similar manner. Component lipids (in chloroform) were transferred to borosilicate culture tubes and combined with vehicle (ethanol) or an equal volume of EPA, DHA, fenofibrate, niacin or gemfibrozil stock solution(s) and adjusted to achieve a drug-to-phospholipid (D/P) mole ratio of 1:30. Membranes reconstituted from POPC and cholesterol (at 50 mol % cholesterol) were treated with each of the various agents at 5 mol %. Samples were then shell-dried under nitrogen gas and placed under vacuum for 3 hours to remove residual solvent.
After drying, each sample was resuspended in glucose-free or glucose-containing saline buffer to yield a final phospholipid concentration of 2.5 mg/mL. Lipid suspensions were then vortexed for 3 minutes at ambient temperature to form MLVs.
(§2) Membrane samples were oriented for x-ray diffraction analysis as described in Mason, et al., J. Biol. Chem., vol. 281, pages 9337-45 (2006). Briefly, 100 μL aliquots of each MLV preparation (containing 250 μg of phospholipid) were transferred to Lucite sedimentation cells fitted with a removable aluminum foil substrate designed to collect MLVs into a single membrane pellet upon centrifugation. Samples were then loaded into a Sorvall AH-629 swinging bucket ultracentrifuge rotor (DuPont Corp., Wilmington, Del.) and centrifuged at 35,000 g, 5° C., for 1.5 hours.
Following membrane orientation, sample supernatants were aspirated and aluminum foil substrates mounted onto curved glass slides. The membrane samples were then placed in hermetically sealed containers in which temperature and relative humidity were controlled during x-ray diffraction analysis. Data reported in this study were collected at 20° C. and 74% relative humidity.
This technique allows for precise measurement of the unit cell periodicity, or d-space, of the membrane lipid bilayer, which is the distance from the center of one lipid bilayer to the next, including surface hydration.
The presence of cholesterol domains in a given membrane sample results in the production of distinct Bragg (diffraction) peaks that have singular periodicity values of 34 Å and 17 Å. These peaks are typically referred to as first- and second-order cholesterol domain peaks.

[3] = X-ray diffraction of cholesterol-enriched POPC membranes without oxidative conditions (Example 8); conditions: 5 mol %, 50 mol % cholesterol, 15° C., 20° C.
Description: Values are mean±S.D. (N=3).
FIGS. 18A-18C show representative x-ray diffraction patterns collected from cholesterol-enriched model membranes treated with vehicle (control), eicosapentaenoic acid (EPA), or docosahexaenoic acid (DHA) and examined at 15° C., 20° C., and 30° C. Membranes were reconstituted from POPC and cholesterol at 50 mol % cholesterol and treated with each of the various agents at 5 mol % (to match treatments used in corresponding lipid dynamics experiments). Each sample was maintained at 74% relative humidity by exposing the samples to a saturated solution of L-(+) tartaric acid. […] DHA, but not EPA or vehicle, induced the formation of cholesterol domains, which are indicated by a distinct set of diffraction peaks (shaded peaks) having a characteristic d-space value of 34 Å and shown to be stable over a broad range of temperatures.
as §1
as §2, with “Samples were then loaded into a Sorvall AH-629 swinging bucket ultracentrifuge rotor (DuPont Corp., Wilmington, Del.) and centrifuged at 35,000 g, 5° C., for 1.5 hours.” left out

[4] = Fluorescence anisotropy, DPH apparent rotational correlation time (Example 8); conditions: POPC, 0 or 50 mol % cholesterol; increasing omega-3 fatty acid concentrations (FIGS. 16A-16B)
Description: FIGS. 16A-16B show the dose-dependent effects of EPA and DHA on the ARCT measured for DPH in POPC membranes prepared at either 0 or 50 mol % cholesterol. †p=0.0331 versus cognate DHA treatment (5 mol % omega-3 fatty acids (O3FA), no cholesterol); ^§p=0.0016 versus cognate DHA treatment (5 mol % O3FA, 50 mol % cholesterol); ^‡p=0.0032 versus cognate DHA treatment (10 mol % O3FA, 50 mol % cholesterol) (unpaired, two-tailed Student's t-test). Values are mean±S.D. (N=3).
Fluorescence anisotropy experiments were conducted using large unilamellar vesicles (LUVs) of 100 nm diameter of either POPC (or POPC/cholesterol) containing increasing concentrations of EPA or DHA and 1 mol % DPH fluorescent. Briefly, 640 nmol of total lipid (phospholipid and sterol) and 6.4 nmol of fluorescent probe was mixed well and dried under a stream of nitrogen while being warmed gently at 35° C. […]
In order to ensure that the anisotropy values measured for DPH are not influenced by lifetime-induced artifacts, the apparent (average) rotational correlation times (ARCT) were calculated using Perrin's equation: […]
where r0 is the limiting anisotropy of DPH, r is the steady state anisotropy, and is the mean fluorescence lifetime.

## CC/C=C\C/C=C\C/C=C\C/C=C\C/C=C\CCCC(=O)O [EPA, cis-5,8,11,14,17-Eicosapentaenoic acid]
sdLDL
  reduction of sdLDL oxidation compared to vehicle treatment: > 90%
[1]
  increase of NO release as compared to non-oxidized sdLDL treatment: 23%
  increase of NO release as compared to oxidized LDL treatment: 53%
[2]
  effect on d-space values: significantly inhibited glucose-induced reductions and peroxidation-induced reductions in d-space values
[3]; 30° C. (FIG. 17)
  membrane width (d-space) compared to DHA or vehicle: increased the width (d-space)
[3]; 30° C. (FIG. 18)
  membrane cholesterol domain formation: did not induce cholesterol domain formation
[4]
  DPH apparent rotational correlation time / membrane fluidity: did not alter membrane fluidity
